Literature values as cited in patent US7074553B2, “Retrovirus associated with myelodysplastic syndromes and uses thereof” (Rush University Medical Center, priority 2000, dated 2006).

B1: G-CSF: colony-stimulating growth factor designed to stimulate proliferation of hematopoietic progenitors (protein, UniProt P09919 31-207, looked up)
Granulocyte …: TPLGPASSLPQSFLLKCLEQVRKIQGDGAALQEKLVSECATYKLCHPEELVLLGHSLGIPWAPLSSCPSQALQLAGCLSQLHSGLFLYQGLLQALEGISPELGPTLDTLQLDVADFATTIWQQMEELGMAPALQPTQGAMPAFASAFQRRAGGVLVASHLQSFLEVSYRVLRHLAQP

System: anemia and thrombocytopenia of MDS patients
Details: administered as single agents

Molecule	improvement of the anemia and the thrombocytopenia
granulocyte-macrophage colony-stimulating factor [GM-CSF]	rarely improves
B1	rarely improves
